Measurements from BindingDB's records for doi:10.1016/j.bmcl.2009.10.099 (Merck Research Laboratories, 2010).

Biological target: Cholesteryl ester transfer protein (Homo sapiens) (UniProt P11597)
Assay: inhibition of human CETP assessed as cholesteryl ester transfer by fluorescence transfer assay

Sequence of Cholesteryl ester transfer protein (Homo sapiens) (P11597 whole entry, looked up): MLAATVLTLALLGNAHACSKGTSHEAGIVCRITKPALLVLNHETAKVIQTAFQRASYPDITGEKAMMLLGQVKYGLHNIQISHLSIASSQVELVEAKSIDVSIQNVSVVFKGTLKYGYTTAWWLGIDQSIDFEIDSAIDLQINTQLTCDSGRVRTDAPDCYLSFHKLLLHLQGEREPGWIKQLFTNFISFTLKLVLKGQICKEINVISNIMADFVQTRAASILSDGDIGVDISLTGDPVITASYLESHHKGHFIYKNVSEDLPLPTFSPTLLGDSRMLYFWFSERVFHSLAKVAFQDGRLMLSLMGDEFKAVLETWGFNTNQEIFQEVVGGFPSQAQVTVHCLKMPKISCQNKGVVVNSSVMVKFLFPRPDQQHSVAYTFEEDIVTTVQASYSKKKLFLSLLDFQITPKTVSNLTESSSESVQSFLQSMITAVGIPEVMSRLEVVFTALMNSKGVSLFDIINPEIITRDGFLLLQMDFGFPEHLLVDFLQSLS

IC50	Structure (SMILES)
160 nM	CC#CC(C)(O)c1cc(C#N)cc2nc(-c3ccc(NC(=O)COc4ccccc4C)cc3)oc12 (configuration not stated)
44 nM	Cc1ccccc1OCC(=O)Nc1ccc(-c2nc3cc(Br)cc(C(C)(C)O)c3o2)cc1
910 nM	Cc1ccccc1OCC(=O)Nc1ccc(-c2nc3cc(Br)cc(F)c3o2)cc1
86 nM	CC(=O)c1cc(C#N)cc2nc(-c3ccc(NC(=O)COc4ccccc4C)cc3)oc12

Continued, compound first:

Structure (SMILES)	IC50
Cc1cc2oc(-c3ccc(NC(=O)COc4ccccc4C)cc3)nc2cc1Cl	> 100000 nM
Cc1ccccc1OCC(=O)Nc1ccc(-c2nc3ccc(F)cc3o2)cc1	7500 nM
Cc1ccccc1OCC(=O)Nc1ccc(-c2nc3cc(C(C)O)ccc3o2)cc1 (configuration not stated)	3400 nM
Cc1ccccc1OCC(=O)Nc1ccc(-c2nc3ccc([N+](=O)[O-])cc3o2)cc1	3200 nM
Cc1ccc2oc(-c3ccc(NC(=O)COc4ccccc4C)cc3)nc2c1	2000 nM
Cc1ccccc1OCC(=O)Nc1ccc(-c2nc3c(C)c(Br)ccc3o2)cc1	> 100000 nM
Cc1ccccc1OCC(=O)Nc1ccc(-c2nc3cc([N+](=O)[O-])ccc3o2)cc1	940 nM
Cc1ccccc1OCC(=O)Nc1ccc(-c2nc3cccc(Cl)c3o2)cc1	21000 nM
